Source: US20220257767A1, “IONIC LIQUIDS FOR DRUG DELIVERY” (PRESIDENT AND FELLOWS OF HARVARD COLLEGE, priority 2019, published 2022)
≈ marks a conversion by molar mass, not a printed value. Entries after “also recorded” stand apart in the source; their conditions may differ. Read-outs that look alike come from different tables or passages of the source.

Assays:
[1] = exemplary anions, Table 5; cited from earlier work
[2] = tested on: porcine skin
From the text: (§1) Skin Penetration Studies. The skin penetration studies were undertaken using porcine skin in Franz diffusion cells, as described in full previously (skin area=1.7 cm^2). […] Briefly, thawed, washed porcine skin was placed in a diffusion cell with the SC facing upwards. The acceptor component of the cell was filled with PBS and equipped with a magnetic stirrer bar. Only cells with a measured trans-epidermal current less than 12 μA were used in the study and the treatments were randomly assigned. 300 μL of drug solution in each IL (1 mg/mL) was placed on top of the skin, ensuring full coverage. The cell was placed on a stirrer plate at 37° C. for 24 hours, at which point the skin was removed and the surface was washed gently with PBS. Each skin layer was then separated. The stratum corneum was removed by tape stripping (up to ten layers), the epidermis was separated from the dermis with a scalpel, and a 4 mm punch was used thrice to remove a third of the dermis (by area).
(§2) HPLC Analysis. The analysis of the amount of drug present in each layer was determined by HPLC. […] For ruxolitinib, an Inertsil ODS C-18 column with 250×4.6 mm internal diameter and 5μm particle size was employed.

[3] = Solubility of the model drugs in PBS and in CAGE variants; type: physicochemical; conditions: PBS, aqueous buffer
[4] = model drugs; cited from earlier work
[5] = tested on: porcine skin; assay: Skin penetration studies using porcine skin in Franz diffusion cells, drug quantified by HPLC; conditions: 24 h, listed as pure geranic acid
From the text: as §1, §2

| Compound | pKa [1] | LogP [1] | further results |
| --- | --- | --- | --- |
| CN(C)CCO [2-(dimethylamino)ethanol] | 9.3 |  |  |
| CCCCC(CC)COS(=O)(=O)[O-].[Na+] (stereo not drawn) [2-ethylhexyl sulfate] |  | 3.10 |  |
| Choline geranate [CAGE] [listing 1 of 2 here] |  |  | Acarbose: Rank [2]: 2; Average Rank [2]: 5; Ruxolitinib: Rank [2]: 8 |
| Hexenoic Acid | 5.13 | 1.8 |  |
| CCCCCCCC(=O)O [Octanoic Acid] | 4.895 | 3.01 |  |
| Choline geranate [CAGE] [listing 2 of 2 here] |  |  | Acarbose: Rank [2]: 1; Average Rank [2]: 1; Ruxolitinib: Rank [2]: 3; delivery/transport of acarbose into skin (in words) [2]: highest delivery efficacy; delivery/transport of ruxolitinib into skin (in words) [2]: highest delivery efficacy |
| O=C(O)c1ccccc1O [Salicylic Acid] |  | 2.2 |  |
| O=C(O)CCCC[C@@H]1CCSS1 [(R)-5-(1,2-dithiolan-3-yl)pentanoic acid] | 5.10 |  |  |
| N#CC[C@H](C1CCCC1)n1cc(-c2ncnc3[nH]ccc23)cn1 [ruxolitinib] |  |  | solubility [3]: 200 µg/mL (≈ 653 µM); Log P [4]: 2.9 |
| CCCCC/C=C/C(=O)O [Octenoic Acid, trans-2-octenoic acid] | 5.05 | 2.9 |  |
| CC(C)=CCC/C(C)=C/C(=O)O [Geranic Acid] | 5.26 | 2.72 | delivery/transport of acarbose into skin (in words) [5]: no significant transport; also recorded: did not yield a noticeable skin flux; delivery/transport of ruxolitinib into skin (in words) [5]: no significant transport; also recorded: did not yield a noticeable skin flux |
| C[C@H]1O[C@H](O[C@H]2[C@H](O)[C@@H](O)[C@@H](O[C@H]3[C@H](O)[C@@H](O)C(O)O[C@@H]3CO)O[C@@H]2CO)[C@H](O)[C@@H](O)[C@@H]1N[C@H]1C=C(CO)[C@@H](O)[C@H](O)[C@H]1O (stereo partly drawn) [Acarbose, acarbose] |  |  | solubility [3]: ≥ 1000 µg/mL |
| CC(C)C(=O)O [2-methylpropanoic acid] |  | 0.73 |  |
| O=C(O)CCCC(=O)O [Glutaric Acid] | 4.34 | −0.29 |  |
| COc1cc(/C=C/C(=O)O)ccc1O [(E)-3-(4-hydroxy-3-methoxy-phenyl)prop-2-enoic acid] | 4.42 |  |  |
| CCC(O)CCCCCCC(=O)O (stereo not drawn) [8-hydroxycapric acid] |  | 2.2 |  |
| O=C(O)C(O)c1ccccc1 (stereo not drawn) [Hydroxyl(phenyl)acetic acid] | 3.41 | 1.2 |  |
| CCCCCCC(O)C(=O)O (stereo not drawn) [2-hydroxyoctanoic acid] | 4.42 | 1.8 |  |
| CC(C)=CCCC(C)CC(=O)O (stereo not drawn) [Citronellic Acid, 3,7-dimethyl-6-octenoic acid] | 5.19 | 2.8 |  |
| Decenoic Acid | 5.03 | 4.02 |  |
| O=C(O)CCCCCCCC(=O)O [Nonanedioic Acid] | 4.55 |  |  |
